Laboratory results reported in patent EP4722219A1 (Gan & Lee Pharmaceuticals Co., Ltd., priority 2023, dated 2024).

Legend:
Type in all cases: cell-based
ERα [1] = target: T1, ERα (Homo sapiens, UniProt P03372); test: ERα degradation in T-47D cells (Western blot); conditions: 4 hours
T1 sequence (P03372 1-595): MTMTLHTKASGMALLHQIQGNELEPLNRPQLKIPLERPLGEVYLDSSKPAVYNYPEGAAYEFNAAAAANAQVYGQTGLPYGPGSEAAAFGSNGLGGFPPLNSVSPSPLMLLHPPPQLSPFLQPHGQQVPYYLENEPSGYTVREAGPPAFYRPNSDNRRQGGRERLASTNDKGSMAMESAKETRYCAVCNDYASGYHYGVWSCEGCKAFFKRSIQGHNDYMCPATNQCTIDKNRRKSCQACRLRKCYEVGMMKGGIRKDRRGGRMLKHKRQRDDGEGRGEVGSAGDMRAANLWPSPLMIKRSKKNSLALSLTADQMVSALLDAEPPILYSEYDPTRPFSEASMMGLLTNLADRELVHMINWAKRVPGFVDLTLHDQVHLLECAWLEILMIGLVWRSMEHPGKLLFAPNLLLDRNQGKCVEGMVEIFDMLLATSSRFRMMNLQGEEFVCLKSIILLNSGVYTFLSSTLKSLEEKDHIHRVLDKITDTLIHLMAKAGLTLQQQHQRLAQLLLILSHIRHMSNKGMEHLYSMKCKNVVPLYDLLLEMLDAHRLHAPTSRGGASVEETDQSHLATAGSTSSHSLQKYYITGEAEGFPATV
Protocol: (§1) Western blotting: The total protein concentration in the collected cell lysate supernatant was determined using the BCA protein concentration assay kit (enhanced) (P0009, Beyotime). Based on the total protein concentration determined by BCA, the protein concentration was adjusted to 1 µg/µL using RIPA lysis buffer and 5× SDS-PAGE protein loading buffer (MB01015, GenScript). The protein was denatured in a 95°C water bath for 5 minutes. After denaturation, the condensed water on the tube wall was collected by centrifugation and used as the loading sample. 20µL of the loading sample (20 µg of total protein) was added to the sample well of a 12% precast gel (M00669, GenScript). Electrophoresis was performed at 100 V for 20 minutes, followed by switching to 150 V for 40 minutes. After electrophoresis, the proteins from the SDS-PAGE gel were transferred to a PVDF membrane at a constant voltage of 100 V for 60 minutes. After transfer, the PVDF membrane corresponding to the ERα protein and internal reference protein was cut and incubated in 1× QµickBlock blocking buffer (P0252, Beyotime) for 30 minutes at room temperature on a shaker. After blocking, the ERα primary antibody (1:1000, 8644S, CST) was added and incubated overnight at 4°C on a shaker. The PVDF membrane was washed three times with 1× TBST buffer for 5 minutes each. Rabbit IgG (H+L) secondary antibody (1:7500, SA5-35571, Invitrogen) was added and incubated for 1 hour at room temperature on a shaker. The membrane was then washed again three times with 1× TBST buffer for 5 minutes each. Finally, the membrane was imaged using a dual-color infrared laser imaging system (Odyssey DLx, LICOR). Protein maps were analyzed for grayscale value using Image Studio Lite software. The grayscale correction value for each sample was calculated using the formula: grayscale correction value = grayscale value of the target protein / grayscale value of the corresponding internal reference. Then the grayscale correction values of the compound group and the control group were compared to calculate the degradation rate of the compound. Table 4 Degradation rate of ERα by PROTAC compounds of the present invention and positive control in MCF-7 cells (%)
Test Example 5 Degradation of ERα by the PROTAC compounds disclosed in the present invention in T-47D cells
T-47D (ATCC) cells were cultured in PRMI-1640 medium (30-2001, ATCC) containing 10% FBS (10099141C, Gibco) at 37°C and 5% CO2 until they entered the logarithmic growth phase. T-47D cells were seeded at a density of 3×10^5 cells/well in a 6-well plate and incubated at 37°C, 5% CO2 for 24 hours. After cell attachment, 1 µL of compound dimethyl sulfoxide solution (final concentration 0.15-1000 nM) was added and incubated for another 4 hours at 37°C, 5% CO2 incubator. After 4 hours, the culture medium was discarded, and each well was washed once with 1 mL of pre-chilled 1× DPBS. The cells were then lysed with 50 µL of RIPA lysis buffer (P0013B, Beyotime) and 1× protease inhibitor cocktail (P1005, Beyotime). After incubation on ice for 20 minutes, the cells were centrifuged at 14,000 g at 4°C for 30 minutes. The supernatant was carefully collected and analyzed for ERα protein levels by immunoblotting. Table 5 Degradation rate of ERα by PROTAC compounds of the present invention and positive control sample in T-47D cells (%)

MCF-7 cells = test: Inhibition of cell proliferation in MCF-7 cells (CCK-8); conditions: MCF-7 cell proliferation, 6 days treatment
Protocol: Test Example 3 Inhibitory effect of PROTAC compounds provided by the present invention on cell proliferation in MCF-7 cells
The complete culture medium required for MCF-7 cells (source ATCC) is DMEM (gibco, Product number: 11995-065) basal culture medium containing 10% fetal bovine serum. MCF-7 cells were seeded in 96-well plates at a density of 800 cells/well, and different concentrations of PROTAC compounds 1-55 provided in the examples of the present invention and positive control sample ARV-471 (source: Inokai) were prepared to treat the cells and incubated at 37 °C, 5% CO2 cell culture incubator for 6 days. According to the manufacturer's instructions, cell viability was detected using a CCK-8 kit (Beyotime, Product number: C0040). The IC50 of each PROTAC compound after treating for 6 days was calculated using GraphPadPrism software based on the inhibition rate. Table 3 Inhibition IC50 value of MCF-7 cell proliferation by PROTAC compounds of the present invention and positive control sample

ERα [2] = target: T1, ERα; test: ERα degradation in MCF-7 cells (Western blot); parameters: host or cells: MCF-7; conditions: 4 hours
Protocol: Test Example 4 Effect of PROTAC Compounds Disclosed in the Present Invention on ERα Degradation in MCF-7 Cells
MCF-7 (ATCC) cells were cultured in DMEM medium (11995-065, Gibco) containing 10% FBS (10099141C, Gibco) at 37°C and 5% CO2 until they entered the logarithmic growth phase. MCF-7 cells were plated at a density of 3×10^5 cells/well in a 6-well plate and incubated at 37°C, 5% CO2 for 24 hours. After cell attachment, 1µL of compound in dimethyl sulfoxide (final concentration 0.15-1000nM) was added and incubated for another 4 hours at 37°C, 5% CO2 incubator. After 4 hours, the culture medium was discarded, and each well was washed once with 1 mL of pre-chilled 1× DPBS. The cells were then lysed with 50 µL of RIPA lysis buffer (P0013B, Beyotime) and 1× protease inhibitor cocktail (P1005, Beyotime). After incubation on ice for 20 minutes, the cells were centrifuged at 14,000 g at 4°C for 30 minutes. The supernatant was carefully collected and analyzed for ERα protein levels by immunoblotting.
as §1

T-47D cells = test: Inhibition of cell proliferation in T-47D cells (CCK-8); conditions: 6 days treatment, CCK-8 cell viability
Protocol: Test Example 2 Inhibitory effect of PROTAC compounds provided by the present invention on cell proliferation in T-47D cells
The complete culture medium required for T-47D cells is 1640 (ATCC, Product number: A10491-01) basal culture medium containing 10% fetal bovine serum. T-47D cells were seeded in 96-well plates at a density of 3,000 cells/well, and different concentrations of PROTAC compounds 1-55 provided in the examples of the present invention and positive control sample ARV-471 (source: Inokai) were prepared to treat the cells and incubated at 37 °C, 5% CO2 cell culture incubator for 6 days. According to the manufacturer's instructions, cell viability was detected using a CCK-8 kit (Beyotime, Product number: C0040). The IC50 of each compound after treating for 6 days was calculated using GraphPadPrism software based on the inhibition rate. Table 2 Inhibition IC50 value of T-47D cell proliferation by PROTAC compounds provided by the present invention and positive control sample

Row | SMILES | Degradation rate of ERα in T-47D cells (%) (ERα [1]; 1nM) | Degradation rate of ERα in T-47D cells (%) (ERα [1]; 10nM) | IC50 (MCF-7 cells; Homo sapiens, MCF7, 144 h) [nM] | Degradation rate of ERα in MCF-7 cells (%) (ERα [2]; 1nM) | Degradation rate of ERα in MCF-7 cells (%) (ERα [2]; 10nM) | IC50 (T-47D cells; Homo sapiens, T47D, 144 h) [nM] | IC50 (MCF-7 cells) [nM] | IC50 (T-47D cells) [nM]
1 | CN(C(=O)CN1CCC2(CC1)COc1c2ccc(F)c1C(=O)N[C@H]1CCC(=O)NC1=O)C1CCC2(CC1)CN(c1ccc([C@@H]3c4ccc(O)cc4CC[C@@H]3c3ccccc3)cc1)C2 [ER-P-40, N-((S)-2,6-dioxopiperidin-3-yl)-6-fluoro-1'-(2-((2-(4-((1R,2S)-6-hydroxy-2-phenyl-1,2,3,4-tetrahydronaphthalen-1-yl)phenyl)-2-azaspiro[3.5]nonan-7-yl)(methyl)amino)-2-oxoethyl)-2H-spiro[benzofuran-3,4'-piperidine]-7-carboxamide] | 22 | 34 | 6210 | -10 | -53 | 28.4 |  | 
2 | Cn1c(=O)n(C2CCC(=O)NC2=O)c2cc3c(cc21)C1(CCN(C2CCC4(CC2)CN(c2ccc([C@@H]5c6ccc(O)cc6CC[C@@H]5c5ccccc5)cc2)C4)CC1)CO3 (stereo partly drawn) [ER-P-59] | 40 | 63 | 0.875 | 14 | 18 | 0.96 |  | 
3 | O=C1CCC(n2c(=O)n3c4c(cccc42)N(C[C@H]2CC[C@@H](OC4CCN(c5ccc([C@@H]6c7ccc(O)cc7CC[C@@H]6c6ccccc6)cc5)CC4)CC2)CC3)C(=O)N1 (stereo partly drawn) [ER-P-56, 3-(6-(((1S,4s)-4-((1-(4-((1R,2S)-6-hydroxy-2-phenyl-1,2,3,4-tetrahydronaphthalen-1-yl)phenyl)piperidin-4-yl)oxy)cyclohexyl)methyl)-2-oxo-5,6-dihydro-4H-imidazo[1,5,4-de]quinoxalin-1(2H)-yl)piperidine-2,6-dione] | 22 | 24 | 2460 | -4 | 16 | 42.2 |  | 
4 | O=C1CCC(N2Cc3c(ccc4c3OCC43CCC4(CC3)CN(C3CCC5(CC3)CN(c3ccc([C@@H]6c7ccc(O)cc7CC[C@@H]6c6ccccc6)cc3)C5)C4)C2=O)C(=O)N1 (stereo partly drawn) [ER-P-10, 3-(1-(2-(4-((1R,2S)-6-hydroxy-2-phenyl-1,2,3,4-tetrahydronaphthalen-1-yl)phenyl)-2-azaspiro[3.5]nonan-7-yl)-6'-oxo-6',8'-dihydro-2'H,7'H-dipyrazole[azetidine-3,1'-cyclohexane-4',3"-furo[2,3-e]isoindol]-7'-yl)piperidine-2,6-dione] | 51 | 77 | 8.53 | 24 | 57 | 1.63 |  | 
5 | Cn1c(=O)n(C2CCC(=O)NC2=O)c2cc3c(cc21)OC1(CC3)CCN(CC2CC(OC3CCN(c4ccc([C@@H]5c6ccc(O)cc6CC[C@@H]5c5ccccc5)cc4)CC3)C2)CC1 (stereo partly drawn) [ER-P-81, 3-(1'-(((1S,3s)-3-((1-(4-((1R,2S)-6-hydroxy-2-phenyl-1,2,3,4-tetrahydronaphthalen-1-yl)phenyl)piperidin-4-yl)oxy)cyclobutyl)methyl)-3-methyl-2-oxo-2,3,7,8-tetrahydro-1H-spiro[chromeno[6,7-d]imidazole-6,4'-piperidin]-1-yl)piperidine-2,6-dione] |  |  |  |  |  |  | 1.6 | 2.57
6 | Cn1c(=O)n(C2CCC(=O)NC2=O)c2ccc3c(c21)OCC31CCN(C2CCN(C3CCN(c4ccc([C@@H]5c6ccc(O)cc6CC[C@@H]5c5ccccc5)cc4)CC3)CC2)CC1 (stereo partly drawn) |  |  | 11.7 |  |  | 1.71 |  | 
7 | Cn1c(=O)n(C2CCC(=O)NC2=O)c2cc3c(cc21)C1(CCN(C(=O)CN2CCC4(CCN(c5ccc([C@@H]6c7ccc(O)cc7CC[C@@H]6c6ccccc6)cc5)CC4)C2)CC1)CO3 (stereo partly drawn) [ER-P-69, 3-(1'-(2-(8-(4-((1R,2S)-6-hydroxy-2-phenyl-1,2,3,4-tetrahydronaphthalen-1-yl)phenyl)-2,8-diazaspiro[4.5]decan-2-yl)acetyl)-1-methyl-2-oxo-1,2-dihydro-3H,6H-spiro[benzofuro[5,6-d]imidazole-7,4'-piperidin]-3-yl)piperidine-2,6-dione] |  |  | 1.43 |  |  | 0.28 |  | 
